# Experimental data reported in patent US8809268B2, “Combination therapy to combat helminth resistance” (The Regents of The University of California, priority 2008, dated 2014).
# “And” between values parts separate entries of the source, which are not always exact repeats. Equal values may be shown once. Read-outs that look alike come from different tables or passages of the source.
# Tests used:
# C. elegans [1] = test: whole plant or invertebrate; type: in vivo, Caenorhabditis elegans; conditions: for IC50: Caenorhabditis elegans, 60 h
# C. elegans [2] = test: whole plant or invertebrate; conditions: for LC50: 6 days at 25° C.; for viability of trb mutant nematodes at concentrations where most or all wild-type nematodes were dead: tribendimidine: trb-1 to trb-4, 100 μg/ml and greater, levamisole: trb-1, trb-2, trb-4, 1000 μM or greater
# Protocol: LC50 assays determine the inhibitory concentration at which 50% of the nematodes are dead under certain conditions as calculated using the PROBIT algorithm. LC50 assays start with wild-type (N2) L4 nematodes. To get L4 nematodes, synchronous L1-staged nematodes (as per developmental assay) were plated onto OP50-seeded ENG plates (see below) and put at 20° for 44 h. The now L4-staged larvae were then washed off with water, spun down at 1800 rpm for 40 seconds, re-suspended with SS Media, spun again, and re-suspended in special SS Media to a concentration of 4 nematodes/μl. The assay was set up in a 48-well microtiter plate. Each well contained: 5 μl L4 nematodes (˜20 total), 40 μl of OP50 bacteria as a food source (see below for preparation), 20 μl of tribendimidine (prepared as below), 5 μl of FUdR (8 mM stock; see below), and SS Medium for a total of 200 μl. Each well was set up in triplicate. The plates were wrapped in moist paper towels, placed in a covered plastic box, and incubated at 25° C. for 6 days. The plates were then removed from the incubator and the nematodes transferred with a glass pipette into the well of a spot glass. Each nematode was then scored for dead or alive as follows. Using a thin platinum wire, each nematode was touched to see if it moved within 10 seconds of being touched. If it moved, it was scored as alive. If not, the touch was repeated a second time. If it moved after the second touch, it was scored as alive. […] The number of alive and dead nematodes was tallied for each well. The data from triplicate wells were combined into a single data point. The experiment was repeated for a total of three times on three different days (so a total of 9 wells per data point).
# A tribendimidine stock solution was prepared at 4 mg/ml at 1% DMSO in SS Media (final concentration in the well will be 0.1% DMSO). 1% DMSO in SS Media was used as a dilutant to set up serial dilutions. For example, tube 1 contained 160 μl of 4 mg/ml Trib in 1% DMSO. Tube 2 contained 80 μl of the solution in Tube 1, diluted with 80 μl 1% DMSO (1:1 dilution; tube 2). Tube 3 contained 80 μl of the solution from Tube 2, diluted with 80 microliters 1% DMSO, etc. . . .
# The trb mutant nematodes were isolated in the forward genetic screen for tribendimidine resistance described above. The LC50 assay was performed as previously described. A levamisole stock solution (100 mM stock) was prepared in water. Dilutions (2-fold) were made in SS Media accordingly such that 20 μl aliquots were added per well to give rise to the desired concentration.
# C. elegans [3] = test: Brood size assay; type: in vivo, Caenorhabditis elegans; conditions: bre-5 mutant vs wild-type, 200 μg/ml tribendimidine, P<0.01
# Protocol: L4 staged worms were used. One worm was picked up with an eyelash pick and placed in SS Media in a 48-well plate. […] The total volume was 200 μl. Each drug concentration was repeated in triplicate. The plates were incubated for 64 h at 25° C. The progeny were then transferred out of the well with a pipette onto an empty NG agar plate for counting. The experiment was repeated a total of three times.
# wild-type C. elegans = type: in vivo, Caenorhabditis elegans
# C. elegans [4] = test: Visual assay on tribendimidine, levamisole or pyrantel plates; conditions: tribendimidine and levamisole plates 100 μg/ml, pyrantel 100 mM stock 1:50 in agar
# Protocol: Tribendimidine plates: stock solution (4 mg/ml) in water was prepared and added into standard C. elegans NG agar media (2.5 ml/100 ml) to a final concentration of 100 μg/ml. The mixture was poured into 35 mm plates (4 ml/plate). The plates were stored up to one week at 4° C. The plates were spread with OP50, a laboratory strain of E. coli commonly used as a food source for C. elegans. Resistant=good health and motility; susceptible=contracted, pale color, move slowly.
# C. elegans [5] = test: Developmental assay on Cry14A dose response plates +/- levamisole; type: in vivo, Caenorhabditis elegans; conditions: N2 wild-type, levamisole 0.75 μg/ml
# Protocol: Similar experiments with a strain that produces Cry14A, alone and in combination with levamisole were performed. […] The Bt strain used in these experiments expressed Cry14A and two insecticidal Cry proteins (Cry34A and Cry35A) that are not expected to affect nematodes. […] To confirm this conclusion, an independent test of synergy between levamisole and Cry14A was carried out. In these experiments, N2 wild-type worms were plated onto Cry14A plates+/−levamisole.
# [6] = Caenorhabditis elegans, 144 h, bre-2 mutant (Cry5B-resistant)
# [7] = Caenorhabditis elegans, 144 h, bre-5 (ye17) mutant (Cry5B-resistant)
# [8] = Caenorhabditis elegans, 144 h, wild-type (N2), L4 nematodes
# [9] = combination of Cry5B and nAChR agonist, 1:1 ratio (μg/ml)
# [10] = trb-1, trb-2, trb-3, trb-4 mutants
# [11] = combination of Cry6A and levamisole
# [12] = combination of Cry21A and levamisole, 3 days at 20° C.
# [13] = combination of levamisole and Bt strain producing Cry14A (also Cry34A, Cry35A)
SMILES,LC50 (C. elegans [2]; [6]) [µg/mL],LC50 (C. elegans [2]; [7]) [µg/mL],LC50 (C. elegans [2]; [8]) [µg/mL],viability of trb mutant nematodes at concentrations where most or all wild-type nematodes were dead (C. elegans [2]),"LC50 (C. elegans [2]; wild-type (N2), L4 nematodes)",synergism factor (CI value) at ED75 (wild-type C. elegans; [9]),synergism factor (CI value) at ED90 (wild-type C. elegans; [9]),synergism factor (CI value) at ED95 (wild-type C. elegans; [9]),appearance of nematodes on drug plates (C. elegans [4]; [10]),appearance of nematodes on drug plates (C. elegans [4]; wild-type),other results
C/C(=N\c1ccc(/N=C/c2ccc(/C=N/c3ccc(/N=C(\C)N(C)C)cc3)cc2)cc1)N(C)C [Tribendimidine],7.27,12.3,54.4,mostly or all alive,58.372 µg/mL and 57.38 µg/mL,0.28,0.19,0.14,resistant,sick,"IC50 (C. elegans [1]; read-out: IC50 (inhibitory concentration at which 50% of the larvae are unable to complete development), wild-type (N2), L1 larvae, 60 h at 20° C.): 18.4 µg/mL; IC50 (C. elegans [1]; read-out: IC50 (larval development), bre-5 (ye17) mutant (Cry5B-resistant), 60 h at 20° C.): 13.2 µg/mL; IC50 (inhibitory concentration at which 50% of the larvae are unable to complete development) (C. elegans [1]; wild-type (N2), L1 larvae, 60 h at 20° C.): 14.718 µg/mL; response of levamisole-resistant mutants in LC50 assay (C. elegans [2]; mutants in 11 levamisole resistance genes (lev-1, lev-8, lev-9, lev-10, lev-11, unc-22, unc-29, unc-38, unc-50, unc-63, unc-74), high concentrations): resistant to tribendimidine; brood size, mutant relative to wild-type (C. elegans [3]): reduced significantly"
CN1CCCN=C1/C=C/c1cccs1 [Pyrantel],10.9,114,502,,594.956 µg/mL,0.74,0.73,0.72,resistant,sick,
c1ccc([C@H]2CN3CCSC3=N2)cc1 [Levamisole],1.16,9.99,19.6,mostly or all alive,11.712 µg/mL,0.29,0.22,0.19,resistant,sick,% alive (C. elegans [2]; trb-3(ye494) nematodes at 1 mM (1000 μM) levamisole): > 40%; synergism factor (CI value) at ED75 (wild-type C. elegans; [11]): 0.96; synergism factor (CI value) at ED90 (wild-type C. elegans; [11]): 0.86; synergism factor (CI value) at ED95 (wild-type C. elegans; [11]): 0.82; synergism factor (CI value) at ED75 (wild-type C. elegans; [12]): 0.52; synergism factor (CI value) at ED90 (wild-type C. elegans; [12]): 0.42; synergism factor (CI value) at ED95 (wild-type C. elegans; [12]): 0.37; synergism factor (CI value) at ED75 (wild-type C. elegans; [13]): 0.60; synergism factor (CI value) at ED90 (wild-type C. elegans; [13]): 0.50; synergism factor (CI value) at ED95 (wild-type C. elegans; [13]): 0.44; effect of levamisole alone on worm development (C. elegans [5]): does not inhibit worm development
